This note sets out measurements from patent publication US9924719B2, “Pyridazine compound” (Sumitomo Chemical Company, Limited, priority 2014, dated 2018).

Common to all, as to format: in vivo
Test [1] has as its system cucurbit leaf beetle (Aulacophora femoralis). The test can be described thus: Test Example 11: spray on cucumber seedling, cucurbit leaf beetle larvae, 50 ppm. Conditions: 120 h, Formulation example 1, spray 30 mL/cup on cucumber, second instar larvae, 25° C., 5 days, read-out: morality of insects. As for the experimental part: Meanwhile, cucumber seedling (on the developmental stage of the third true leaf) was planted in a polyethylene cup, and each of the test chemical solution was sprayed into the seedling in a ratio of 30 mL/cup. After the test chemical solution was dried, the second leaf thereof was cut out, and then installed into a 200 mL cup. Ten (10) heads of the second instar larvae of cucurbit leaf beetle (Aulacophora femoralis) were released into the cup, and the cup was covered with a lid. After the cup was stored at 25° C. for 5 days, the number of the dead insects was counted, and the mortality of insects was calculated by the following equation. Morality (%)−{the number of the dead insects/the number of the test isects}×100

The test system of test [2] is cotton aphid (Aphis gossypii). As to the kind of experiment: Test Example 2: foliar spray on cucumber seedling infested with cotton aphid, 200 ppm. Conditions: 144 h, spray 20 mL/seedling on cucumber, 6 days after spraying, read-out: controlling value.
Test [3] concerns cotton aphid (Aphis gossypii). As to the kind of experiment: Test Example 1: foliar spray on cucumber seedling infested with cotton aphid, 500 ppm. As to conditions: 144 h, spray 20 mL/seedling on cucumber, 6 days after spraying, read-out: controlling value.
Test [4] deals with brown planthopper (Nilaparvata lugens). As to the kind of experiment: Test Example 5: spray on rice seedling, brown planthopper, 200 ppm. As to conditions: 144 h, 10 mL spray on rice seedling, 3rd to 4th instar larvae, after 6 days, 25° C., read-out: controlling value.
The test system of test [5] is housefly (Musca domestica). The test can be described thus: Test Example 9: treated filter paper with sucrose bait, housefly, 500 ppm. Conditions: 0.7 mL on filter paper, female adult housefly, after 24 hours. The procedure: Each formulation comprising the Present compound 5, 17, 25, 26, 27, 31, 35, 36, 37 or 38, or the N-oxide 3, the N-oxide 4, or the N-oxide 5 prepared by the process according to the Formulation example 5 was diluted with water until the concentration of the active ingredient reached 500 ppm to prepare a test chemical solution.
The bottom of the polyethylene cup having 5.5 cm diameter was matted with the same size of a filter paper, and 0.7 mL of the test chemical solution was added dropwise to the filter paper, and 30 mg sucrose as bait was placed in the cup uniformly. Ten (10) heads of female adult housefly (Musca domestica) were released into the polyethylene cup, and the cup was covered with a lid. After 24 hours, the life and death of housefly was investigated, and the number of dead insects was counted, and the mortality of insects was calculated by the following equation. Mortality of insects (%)=(the number of dead insects/the number of test insects)×100

Test [6] relates to cabbage moth (Plutella xylostella). As to the kind of experiment: Test Example 7: spray on cabbage seedling, cabbage moth larvae, 500 ppm. Conditions: 120 h, spray 20 mL/cup on cabbage, 2nd instar larvae, 25° C., 5 days, read-out: morality of insects. The procedure:
(§1) Meanwhile, cabbage seedling (on the developmental stage of the third true leaf) was planted in a polyethylene cup, and each of the test chemical solution was sprayed into the cabbage seedling in a ratio of 20 mL/cup. After the test chemical solution was dried, the stem and leaf thereof was cut out and then installed into a 50 mL cup. Five (5) heads of 2nd instar larvae of cabbage moth (Plutella xylostella) were released into the cup, and the cup was covered with a lid. After the cup was stored at 25° C. for 5 days, the number of the dead insects was counted, and the mortality of insects was calculated by the following equation. Morality (%)=([…]the number of the dead insects/the number of the test insects)×100

For test [7] the test system is unchanged. The test can be described thus: Test Example 8: spray on cabbage seedling, cabbage moth larvae, 200 ppm. As to conditions: 120 h, spray 20 mL/cup on cabbage, 2nd instar larvae, 25° C., 5 days, read-out: morality of insects. The procedure: as §1, with “of the surviving insects/the number” for “of the dead insects/the number”
The test system of test [8] is house mosquito (Culex pipiens pallens). The test can be described thus: Test Example 10: house mosquito larvae in treated water. Conditions: 0.7 mL of 500 ppm solution in 100 ml water (3.5 ppm), last instar larvae, after 1 day. As for the experimental part: The formulation comprising the Present compounds 4 prepared by the process according to the Formulation example 5 was diluted with water until the concentration of the active ingredient reached 500 ppm to prepare a test chemical solution.
Zero point seven(0.7) mL of the testg chemical solution was added to ion-changed water 100 ml (the concentrataion of the active ingredient was 3.5 ppm). Twently (20) heads of the last instar larvae of […] house mosquito (Culex pipiens pallens) were released […], and after 1 day, the life and death of house mosquito was investigated, and the number of dead insects was counted, and the mortality of insects was calculated by the following equation. Mortality of insects (%)=(the number of the dead insects/the number of the test insects)×100

As to `CC[S+]([O-])c1cccnc1-c1ccc(OCC(F)(F)C(F)(F)F)nn1` (stereo not drawn) [Present compound 29], the pest or weed control at 50 ppm in test [1] was at least 85%. Moreover, the pest or weed control at 200 ppm in test [2] and in test [4] was at least 90% each time. Besides, in test [3], the pest or weed control at 500 ppm is at least 90%.
With `CCC(Oc1ccc(-c2ncccc2S(=O)(=O)CC)nn1)C(F)(F)F` (stereo not drawn) [Present compound 26], in test [5], the morality of insects worked out at 100%.
On to `CCS(=O)(=O)c1cccnc1-c1n[n+]([O-])c(OCC(F)(F)C(F)(F)F)cc1C` [N-oxide 3], for which, in test [5], the morality of insects is on record as 100%.
In the case of `CCS(=O)(=O)c1cc(C(F)(F)F)cnc1-c1ccc(OCC(F)(F)C(F)(F)F)[n+]([O-])n1` [N-oxide 4], the morality of insects in test [5] is recorded as 100%.
As for `CC[S+]([O-])c1cccnc1-c1cc(C)c(OCC(F)(F)C(F)F)nn1` (stereo not drawn) [Present compound 37], the pest or weed control at 500 ppm is at least 80% in test [6] and at least 90% in test [3]. Further, the pest or weed control at 200 ppm in test [2] and in test [4] was at least 90% each time. For the same molecule, in test [5], the morality of insects is reported as 100%.
`CCS(=O)(=O)c1cccnc1-c1ccc(OCC(C)(C(F)(F)F)C(F)(F)F)nn1` [Present compound 25]: in test [5], the morality of insects was 100%.
Molecule `CCS(=O)(=O)c1cc(C(F)(F)F)cnc1-c1ccc(OCC(F)(F)C(F)F)nn1` [Present compound 31] returned a morality of insects in test [5] of 100%.
Regarding `CCS(=O)(=O)c1cc(C(F)(F)F)cnc1-c1ccc(OCC(F)(F)C(F)(F)F)nn1` [Present compound 28], the pest or weed control at 50 ppm in test [1] was at least 85%. In addition, the pest or weed control at 200 ppm in test [2] is at least 90%; in test [4], at least 90%; in test [7], at least 80%.
`CCS(=O)(=O)c1cccnc1-c1cc(C)c(OCC(F)(F)C(F)F)nn1` [Present compound 35]: in test [1], the pest or weed control at 50 ppm was at least 85%. Besides, the pest or weed control at 500 ppm in test [6] was at least 80%; in test [3] it was at least 90%. Moreover, the figures for the pest or weed control at 200 ppm in test [2], in test [4] and in test [7] were at least 90%, at least 90% and at least 80%, respectively. In addition, the morality of insects in test [5] is given as 100%.
Regarding `CCS(=O)(=O)c1cccnc1-c1cc(C(F)(F)F)c(OCC(F)(F)C(F)F)nn1` [Present compound 33], the pest or weed control at 500 ppm was at least 80% in test [6] and at least 90% in test [3]. Also, in test [7], the pest or weed control at 200 ppm was at least 80%.
Turning to `CC[S+]([O-])c1cccnc1-c1cc(C)c(OCC(F)(F)C(F)(F)F)nn1` (stereo not drawn) [Present compound 38], the values for the pest or weed control at 500 ppm in test [6] and in test [3] were at least 80% and at least 90%, respectively. In addition, the pest or weed control at 200 ppm was at least 90% in test [2], at least 90% in test [4] and at least 80% in test [7]. In test [5], this molecule registered a morality of insects of 100%.
In the case of `CCS(=O)(=O)c1cc(C(F)(F)F)ccc1-c1ccc(OCC(F)(F)F)nn1` [Present compound 1], in test [1], the pest or weed control at 50 ppm was at least 85%.
On to `CCSc1cccnc1-c1ccc(OCC(F)(F)C(F)(F)F)nn1` [Present compound 27], for which the pest or weed control at 50 ppm in test [1] was at least 85%. For the same molecule, the pest or weed control at 500 ppm in test [6] was at least 80%; in test [3] it was at least 90%. The pest or weed control at 200 ppm was at least 90% in test [2], at least 90% in test [4] and at least 80% in test [7]. The molecule also gave a morality of insects in test [5] of 100%.
With `CCS(=O)(=O)c1cccnc1-c1cc(C)c(OCC(F)(F)C(F)(F)F)nn1` [Present compound 36], the pest or weed control at 500 ppm in test [6] is at least 80%; in test [3] it was at least 90%. The pest or weed control at 200 ppm in test [2] was at least 90%; in test [4] it was at least 90%; in test [7], at least 80%. Further, the morality of insects in test [5] amounted to 100%.
With `CCS(=O)(=O)c1cccnc1-c1cc(C(F)(F)F)c(OCC(F)(F)C(F)(F)F)nn1` [Present compound 34], the pest or weed control at 50 ppm in test [1] is at least 85%. The pest or weed control at 500 ppm in test [6] was at least 80%; in test [3], at least 90%. The pest or weed control at 200 ppm in test [7] is at least 80%.
Turning to `CCS(=O)(=O)c1cc(C(F)(F)F)cnc1-c1ccc(OCC(F)(F)C(F)F)[n+]([O-])n1` [N-oxide 5], the morality of insects in test [5] was 100%.
As to `CCS(=O)(=O)c1cccnc1-c1nnc(OCC(F)(F)C(F)(F)F)cc1C` [Present compound 30], the pest or weed control at 200 ppm in test [7] was at least 80%.
As for `CCS(=O)(=O)c1cccnc1-c1ccc(OCC(F)(F)C(F)(F)C(F)(F)F)nn1` [Present compound 17], the morality of insects in test [5] is on record as 100%.
For the molecule `CCS(=O)(=O)c1cccnc1-c1ccc(OCC(Cl)(Cl)Cl)nn1` [Present compound 4], the pest or weed control at 50 ppm in test [1] was at least 85%. For the same molecule, the pest or weed control at 200 ppm in test [2] is at least 90%. Besides, the pest or weed control at 500 ppm in test [3] was at least 90%. Also, in test [8], the insect mortality is recorded as at least 95%.
In test [5], `CCS(=O)(=O)c1cccnc1-c1ccc(OCC(F)(F)F)nn1` [Present compound 5] showed a morality of insects of 100%.
`CCS(=O)(=O)c1cccnc1-c1ccc(OCC(F)(F)C(F)F)nn1` [Present compound 8]: in test [1], the pest or weed control at 50 ppm was at least 85%. Also, the pest or weed control at 500 ppm in test [6] is at least 80%; in test [3] it was at least 90%. Further, the pest or weed control at 200 ppm in test [2] was at least 90%; in test [4], at least 90%; in test [7] it was at least 80%.
